The NIST ThermoML archive (doi:10.1021/acs.jced.6b00158)
Numbers after ± are expanded uncertainties.

Assay: xn = mol fraction of the nth substance listed
Details: 100 kPa, Liquid; for viscosity: Falling or rolling sphere viscometry; for mass density: Vibrating tube method

NC1CCCCC1 [cyclohexylamine] + CC(C)CO
Details	mass density, 293.15 K [kg/m3]	mass density, 298.15 K [kg/m3]	mass density, 303.15 K [kg/m3]	mass density, 308.15 K [kg/m3]	mass density, 313.15 K [kg/m3]	viscosity, 293.15 K [mPa·s]	viscosity, 298.15 K [mPa·s]	viscosity, 303.15 K [mPa·s]	viscosity, 308.15 K [mPa·s]	viscosity, 313.15 K [mPa·s]
x2 = 0	866.85 ± 2	862.31 ± 2	857.79 ± 2	853.24 ± 2	848.71 ± 2	2.134 ± 0.063	1.944 ± 0.062	1.786 ± 0.062	1.572 ± 0.062	1.417 ± 0.061
x2 = 0.06096	865.7 ± 2	861.18 ± 2	856.68 ± 2	852.18 ± 2	847.71 ± 2	2.408 ± 0.064	2.146 ± 0.063	1.948 ± 0.062	1.697 ± 0.062	1.515 ± 0.061
x2 = 0.1205	865.02 ± 2	860.59 ± 2	856.11 ± 2	851.64 ± 2	847.15 ± 2	2.575 ± 0.064	2.279 ± 0.063	2.055 ± 0.063	1.791 ± 0.062	1.578 ± 0.062
x2 = 0.2357	861.79 ± 2	857.37 ± 2	852.93 ± 2	848.49 ± 2	844.09 ± 2	2.838 ± 0.065	2.474 ± 0.064	2.204 ± 0.063	1.917 ± 0.062	1.678 ± 0.062
x2 = 0.3458	856.98 ± 2	852.62 ± 2	848.23 ± 2	843.79 ± 2	839.39 ± 2	3.048 ± 0.066	2.644 ± 0.064	2.334 ± 0.063	2.022 ± 0.062	1.761 ± 0.062
x2 = 0.4513	850.89 ± 2	846.55 ± 2	842.2 ± 2	837.83 ± 2	833.46 ± 2	3.246 ± 0.066	2.805 ± 0.065	2.454 ± 0.064	2.123 ± 0.063	1.839 ± 0.062
x2 = 0.5523	847.01 ± 2	842.76 ± 2	838.46 ± 2	834.13 ± 2	829.78 ± 2	3.403 ± 0.067	2.937 ± 0.065	2.558 ± 0.064	2.212 ± 0.063	1.902 ± 0.062
x2 = 0.6492	839.36 ± 2	835.13 ± 2	830.89 ± 2	826.62 ± 2	822.37 ± 2	3.522 ± 0.067	3.037 ± 0.066	2.626 ± 0.064	2.275 ± 0.063	1.96 ± 0.062
x2 = 0.7421	830.79 ± 2	826.7 ± 2	822.55 ± 2	818.36 ± 2	814.15 ± 2	3.534 ± 0.067	3.046 ± 0.066	2.629 ± 0.064	2.303 ± 0.063	1.998 ± 0.062
x2 = 0.8315	820.81 ± 2	816.78 ± 2	812.73 ± 2	808.63 ± 2	804.54 ± 2	3.606 ± 0.068	3.088 ± 0.066	2.646 ± 0.064	2.309 ± 0.063	1.998 ± 0.062
x2 = 0.9174	814.12 ± 2	810.19 ± 2	806.19 ± 2	802.09 ± 2	798 ± 2	3.668 ± 0.068	3.13 ± 0.066	2.676 ± 0.064	2.345 ± 0.063	2.015 ± 0.062
